Biological target: T1, SERT (Homo sapiens, UniProt P31645)
T1 construct: expressed in transfected cells
Test: whole-cell patch clamp of 5-HT-mediated currents in SERT-expressing HEK293 cells
Assay type: cell-based
Description: ten minutes (for [3H]MPP+), by exchange of the substrate-containing buffer with 0.2 mL ice-cold KHB.
The KHB was aspirated immediately. Cells were lysed and prepared for [3H] content analysis by adding 0.2 mL Ultima Gold™ XR liquid scintillation cocktail. Measurements were performed in a 1450 MicroBeta microplate liquid scintillation counter. Non-specific uptake was determined in the presence of 30 µM paroxetine (for YhSERT), 50 µM GBR12909 (for YhDAT and hNET), or 100 µM decynium-22 (for YhOCT3).
For radioligand binding assays, membranes were first prepared from HEK293 cells stably expressing YhSERT. Cells were harvested from dishes using a plastic scraper and ice-cold PBS. Cells were recovered as a pellet after centrifugation (400× g) for 10 min at 4°C, and then re-suspended in HME buffer. […] Protein concentration was determined using Coomassie Brilliant Blue kit (BioRad Laboratories, California, USA). […] The amount of radioactivity in the filters was measured using a Tri-Carb 2800TR liquid scintillation analyzer (PerkinElmer). The Ki was calculated from the measured IC50 using the Cheng-Prusoff equation.
Prior to imaging, cell culture medium was replaced with pre-warmed KHB. […] PyrAtes were excited using a 405 nm laser, and its fluorescent signals collected using 525/50 nm emission filters; mCherry was excited using a 561 nm laser, and fluorescence was collected using 595/50 nm emission filters. […]

T1 sequence (P31645 whole entry): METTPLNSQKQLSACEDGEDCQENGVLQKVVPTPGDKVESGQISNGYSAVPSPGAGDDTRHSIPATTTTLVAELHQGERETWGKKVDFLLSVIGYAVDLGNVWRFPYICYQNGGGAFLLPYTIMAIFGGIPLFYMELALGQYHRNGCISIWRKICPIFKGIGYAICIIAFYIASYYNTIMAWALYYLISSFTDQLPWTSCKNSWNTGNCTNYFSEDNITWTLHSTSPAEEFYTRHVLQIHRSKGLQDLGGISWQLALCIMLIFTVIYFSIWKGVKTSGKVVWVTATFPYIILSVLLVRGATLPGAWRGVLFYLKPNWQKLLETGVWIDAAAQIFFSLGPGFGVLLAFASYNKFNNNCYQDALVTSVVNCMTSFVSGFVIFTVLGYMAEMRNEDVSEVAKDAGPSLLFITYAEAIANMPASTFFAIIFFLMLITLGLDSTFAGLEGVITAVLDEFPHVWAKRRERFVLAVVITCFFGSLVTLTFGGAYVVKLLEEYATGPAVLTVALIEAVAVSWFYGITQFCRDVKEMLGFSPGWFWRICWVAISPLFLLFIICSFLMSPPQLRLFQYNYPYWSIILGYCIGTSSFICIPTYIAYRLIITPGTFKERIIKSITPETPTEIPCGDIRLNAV

CCN(CC)c1ccc(-c2cc[n+]3c(-c4ccccc4)c(N4CCCC4)n(CCCCCCC(=O)NCc4ccc5c(c4)CO[C@@]5(CCCN(C)C)c4ccc(F)cc4)c3c2)cc1 [PYR-C6-CIT, PyrAte-C6-(S)-citalopram]
ratio of 5-HT-mediated currents before and after application (current reduced to) (1 μM compound, 10 µM 5HT, N = 6): 47% | inhibition at 1 µM (HEK293, read-out: inhibition of 5-HT-mediated currents, 1 μM concentration): ~50%

Reference: paper PMC11891579, “Fluorescent PyrAte-(S)-citalopram conjugates enable imaging of the serotonin transporter in living tissue” (Chemical Science, 2025)
